“Also recorded” adds a separate entry of the source.
Tests used:
LC3 = assay: Autophagy activity in cultured cells by immunoblotting using LC3 as a marker; assay type: cell-based, human; conditions: HeLa
Protocol: In order to evaluate the autophagy activity efficacy by the compounds (Examples 1-19), HeLa cell line, which is a cell line derived from a cervical cancer patient, was cultured using a DMEM medium containing 10% FBS and 1% streptomycin/penicillin in an incubator with 5% carbon dioxide. As representative compounds among the present compounds, YOK-1107, YOK-4404 and YOK-1104 were selected. In order to measure autophagy activity according to the treatment with these selected representative compounds, the respective cells were dispensed into 6 well plates. Additional cultures were performed […] so that the cells were completely attached to the surface of the plate. To find the concentration at which the respective compounds could increase the phenomenon of autophagy, the test compounds were diluted at 1, 2, 5, 10 and 20 μM and treated. After treatment with the respective compounds, the cells were cultured again in a cell incubator for 24 hours, and then the cells were collected. To extract proteins from the collected cells, 100 ul of lysis buffer (20 mM Tris (pH 7.4), 150 mM NaCl, 1% Triton X-100, 2 mM NaF, 2 mM EDTA, 2 mM beta-glycerophosphate, 5 mM sodium orthovanadate, 1 mM PMSF, leupeptin, aprotinin) was injected into each sample, and cells were lysed. Based on the measured total protein concentration, a sample buffer was added to each sample and allowed to react at 100° C. for 5 minutes. 5 ul was taken from the samples after the reaction, and dispensed into each well of acrylamide gel, and then immunoblotting was performed.
In order to investigate the autophagy activity efficacy by the compounds (Examples 1-19), immunoblotting was performed in the same manner as in Experimental Example 2 using LC3 as a marker. As for the difference, in order to evaluate the treatment time required for activation and the activity retention time, as the representative compounds selected among the present compounds, 5 μM of YOK-1107, YOK-1204, YOK-1304, YOK-2204, YOK-3304, […] treated for 1, 3, 6, 12, 24, 48 hours. On the other hand, as the representative compounds selected among the compounds of the present invention, […] YOK-1107, YOK-1109, YOK-2207, YOK-2209, YT-4-1, YT-4-2, YT-6-1, YT-6-2, YT-6-8, YT-6-7, YT-9-1, YT-9-2 were treated for 24 hours.
In order to investigate the autophagy activity efficacy of control compounds, immunoblotting was performed in the same manner as in Experimental Example 2 by using LC3 as a marker. As the control compounds, compounds having the following structure were used.

p62 and LC3 = assay: Autophagy activity in cultured cells by immunofluorescence staining and confocal microscopy (p62 and LC3 puncta); assay type: cell-based, human; conditions: for p62 activation/oligomerization, delivery to autophagosome and autophagy activity (p62 and LC3 puncta, co-existence): HeLa, 5 uM, 24 hours, FIGS. 6a and 6b; for p62 activation/oligomerization, delivery to autophagosome and autophagy activity (p62 and LC3 puncta), control compounds: different concentrations, FIG. 7
Protocol: In order to confirm the p62 protein activity and the activity level of autophagy phenomenon by the compounds (Examples 1-19), immunofluorescence staining was performed using p62 and LC3 as markers. In order to confirm the p62 activity and the activity level of autophagy phenomenon by new p62 ligands and isomers thereof in cultured cells, HeLa cell line, which is a cell line derived from cervical cancer patient, was treated with the novel p62 ligand compounds (YOK-1106, YOK-1204, YOK-1504, YOK-2204, YOK-3304, YOK-4404, YOK-1107, YOK-1109, YOK-2207, YOK-2209, YT-4-1, YT-4-2, YT-6-1, YT-9-1 and YT-9-2) and cultured. Thereafter, as markers of the autophagy phenomenon, the expression level and location of LC3 puncta and the local co-existence with p62 puncta were observed.
For immunofluorescence staining, a cover glass was placed on a 24-well plate, cells were dispensed, cultured for 24 hours, and then treated with 5 uM of the novel p62 ligands according to the present invention. For the action of the compounds, additional cultures were performed for 24 hours, and then the medium was removed. Cells were fixed using formaldehyde at room temperature. In order to prevent non-specific staining, the cells were allowed to react with a blocking solution at room temperature for 1 hour, and then treated with LC3 antibody diluted at a certain ratio using the blocking solution, and allowed to reacted at room temperature for 1 hour. The antibody-treated cells were washed three times with PBS, and goat-derived secondary antibody was diluted at a certain ratio using the blocking solution, and then allowed to react at room temperature for 30 minutes. The cells were washed again with PBS three times, and for intracellular nuclear staining, the expression level, intracellular puncta formation and intracellular coexistence level of p62 and LC3 were observed through a confocal microscopy after DAPI staining.
In order to confirm p62 protein activity and the activity level of autophagy phenomenon of control compounds (YOK-A-1104, YOK-G-1104, YTK-1005, YTK-1105-1), immunofluorescence staining was performed in the same manner as in Experimental Example 4 by using p62 and LC3 as markers. YOK-A-1104 and YOK-G-1104 are compounds having the following structures.
The compounds were treated at different concentrations, and intracellular puncta of p62 or LC3, that is, the degree to which autophagosome was formed and p62 was delivered was observed by a confocal microscopy.

p62 protein = biological target: T1, p62 protein (Homo sapiens, UniProt Q13501); assay: Oligomerization activity of p62 protein in cultured cells by immunoblotting; assay type: cell-based; conditions: HEK293 cell lysate treated with test compounds at room temperature for 2 hours; immunoblot, FIG. 2
T1 construct: endogenous in cells; host or cells: HEK293 (cell lysate treated with compounds)
T1 sequence (Q13501 whole entry): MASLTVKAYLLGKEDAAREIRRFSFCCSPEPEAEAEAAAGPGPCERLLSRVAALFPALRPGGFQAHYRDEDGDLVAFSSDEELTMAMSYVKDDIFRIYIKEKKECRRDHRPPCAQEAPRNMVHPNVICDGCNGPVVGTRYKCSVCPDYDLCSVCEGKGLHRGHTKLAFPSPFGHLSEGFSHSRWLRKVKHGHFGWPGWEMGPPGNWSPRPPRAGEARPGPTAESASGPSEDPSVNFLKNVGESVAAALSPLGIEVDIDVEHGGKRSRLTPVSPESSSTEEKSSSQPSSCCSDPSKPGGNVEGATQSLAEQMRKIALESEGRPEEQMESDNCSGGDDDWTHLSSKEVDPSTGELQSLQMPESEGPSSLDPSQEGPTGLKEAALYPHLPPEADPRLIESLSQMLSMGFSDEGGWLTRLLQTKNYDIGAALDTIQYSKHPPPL
Description: In order to evaluate the p62 protein oligomerization activity efficacy by the compounds (Examples 1-19), HEK293 cell line, which is human embryonic kidney-derived cell, was collected. As representative compounds among the present compounds, YOK-1104, YOK-2204, YOK-3304, YOK-1204, YOK-4404, YOK-1107, YOK-1109, YOK-2207, YOK-2209, YT-4-1, YT-4-2, YT-6-1, YT-6-2, YT-6-7, YT-6-8, YT-9-1, YT-9-2 were selected. In order to measure intracellular p62 protein activation and oligomerization according to the treatment with these selected representative compounds, the respective cells were dispensed into a pi dish. The cells were collected after further culturing for 24 hours so that the cells were completely attached to the surface of the plate. 100 ul of lysis buffer (20 mM Tris, pH 7.4), 150 mM NaCl, 1% Triton X-100, 2 mM NaF, 2 mM EDTA, 2 mM beta-glycerophosphate, 5 mM sodium orthovanadate, 1 mM PMSF, leupeptin, aprotinin) were injected into each sample and the cells were lysed. Based on the measured total protein concentration, each sample was treated with test compounds at room temperature for 2 hours, and then a sample buffer was added and allowed to react at 95° C. for 10 minutes. 25 ul was taken from the samples after the reaction, and dispensed into each well of acrylamide gel, and then immunoblotting was performed.

[1] = 5 μM, treated for 1, 3, 6, 12, 24, 48 hours, FIG. 4
[2] = treated for 24 hours (concentration not given), FIG. 4

Row | SMILES | autophagy activity (level of LC3) (LC3; [1]) | p62 activation/oligomerization, delivery to autophagosome and autophagy activity (p62 and LC3 puncta, co-existence) (p62 and LC3) | p62 protein oligomerization activity (p62 monomer, oligomers and high-molecular aggregates) (p62 protein) | p62 activation/oligomerization, delivery to autophagosome and autophagy activity (p62 and LC3 puncta), control compounds (p62 and LC3) | also measured
1 | OCCNC[C@@H](O)COc1ccc(OCc2ccccc2)c(OCc2ccccc2)c1 [YOK-1106] | increasing the autophagy activity | delivering them to autophagosome and simultaneously increasing autophagy activity | – | – | –
2 | CC(C)NC[C@@H](O)COc1ccc(OCc2ccccc2)c(OCCc2ccccc2)c1 [YOK-1204, (R)-1-(4-(benzyloxy)-3-phenethoxyphenoxy)-3-(isopropylamino)propan-2-ol] | gradually increased; also recorded: increasing the autophagy activity | delivering them to autophagosome and simultaneously increasing autophagy activity | increasing the p62 protein oligomerization activity | – | –
3 | CC(C)NC[C@@H](O)COc1ccc(OCCc2ccccc2)c(OCCc2ccccc2)c1 [YOK-2204, (R)-1-(3,4-diphenethoxyphenoxy)-3-(isopropylamino)propan-2-ol] | gradually increased; also recorded: increasing the autophagy activity | delivering them to autophagosome and simultaneously increasing autophagy activity | increasing the p62 protein oligomerization activity | – | –
4 | CC(C)NC[C@@H](O)COc1ccc(OCCCc2ccccc2)c(OCCCc2ccccc2)c1 [YOK-3304, (R)-1-(3,4-bis(3-phenylpropoxy)phenoxy)-3-(isopropylamino)propan-2-ol] | gradually increased | delivering them to autophagosome and simultaneously increasing autophagy activity | increasing the p62 protein oligomerization activity | – | –
5 | CC(C)NC[C@@H](O)COc1ccc(OCCCCc2ccccc2)c(OCCCCc2ccccc2)c1 [YOK-4404, (R)-1-(3,4-bis(4-phenylbutoxy)phenoxy)-3-(isopropylamino)propan-2-ol] | increasing the autophagy activity | delivering them to autophagosome and simultaneously increasing autophagy activity | increasing the p62 protein oligomerization activity | – | autophagy activity (level of LC3) (LC3; 1, 2, 5, 10 and 20 μM, 24 hours, FIG. 3): increasing the autophagy activity
6 | CCOC(=O)C(C)NC[C@@H](O)COc1ccc(OCc2ccccc2)c(OCc2ccccc2)c1 (stereo partly drawn) [YOK-A-1104, Ethyl (R)-(3-(3,4-bis(benzyloxy)phenoxy)-2-hydroxypropyl)alanineate, reference compound] | – | – | – | delivering them to autophagosome and simultaneously increasing autophagy activity | –
7 | COC(=O)CNC[C@@H](O)COc1ccc(OCc2ccccc2)c(OCc2ccccc2)c1 [YOK-G-1104, Methyl (R)-(3-(3,4-bis(benzyloxy)phenoxy)-2-hydroxypropyl)glycineate, reference compound] | – | – | – | delivering them to autophagosome and simultaneously increasing autophagy activity | –
8 | OCCNC[C@@H](O)COc1cccc(OCc2ccc(F)cc2)c1 [YT-6-8, (R)-1-(3-((4-fluorobenzyl)oxy)phenoxy)-3-((2-hydroxyethyl)amino)propan-2-ol] | – | – | increasing the p62 protein oligomerization activity | – | autophagy activity (level of LC3) (LC3; [2]): gradually increased
9 | N=C(N)NCCNC[C@@H](O)COc1ccc(OCc2ccc(Cl)cc2)c(OCc2ccc(Cl)cc2)c1 [YT-9-1] | – | – | increasing the p62 protein oligomerization activity | – | autophagy activity (level of LC3) (LC3; [2]): gradually increased
10 | N=C(N)NCCNC[C@@H](O)COc1ccc(OCc2ccc(F)cc2)c(OCc2ccc(F)cc2)c1 [YT-9-2] | – | – | increasing the p62 protein oligomerization activity | – | autophagy activity (level of LC3) (LC3; [2]): gradually increased
11 | OCCNCc1ccc(OCc2ccccc2)c(O)c1 [YTK-1005, reference compound] | – | – | – | delivering them to autophagosome and simultaneously increasing autophagy activity | –
12 | OCCCCc1ccc(OCc2ccccc2)c(OCc2ccccc2)c1 [YTK-1105-1, 4-(3,4-bis(benzyloxy)phenyl)butan-1-ol, reference compound] | – | – | – | delivering them to autophagosome and simultaneously increasing autophagy activity | autophagy activity (level of LC3), control compounds (LC3; different concentrations and different times, FIG. 5): do not increase autophagy activity
